Several values for one entry are separate records, joined by “and”; a condition that tells them apart may be missing. Equal entries are not always repeated.
Legend:
Nluc-FFA1 [1] = target: T1, Nluc-FFA1 (Homo sapiens, UniProt O14842); experiment: NanoBRET binding (saturation, competition, kinetics) at N terminal Nluc tagged FFA1; conditions: Nluc-FFA1; for Kd: read-out: Kd, saturation BRET binding
T1 construct: expressed in transfected cells
Experimental: (§1) Nluc-FFA1 or FFA1-Nluc Flp-In T-REx 293 cells were plated at 50,000 cells per well in poly-D-lysine coated white 96-well plates. Cells were cultured for 24 h in the plate before medium was replaced with medium containing 100 ng/mL of doxycycline to induce receptor expression. After culturing for a further 24 h, medium was removed, cells were washed with HBSS and incubated in HBSS for 30 min. To start the assay, NanoGlo substrate (Promega, N1110) was added to the cells at a 1:800 final dilution and incubated for 10 min at 37 °C. For endpoint assays, including both saturation and competition binding, test ligands were then added, including both fluorescent and unlabelled competing ligands as indicated, and plates incubated for a further 5 min at 37 °C. NanoBRET was then quantified in a CLARIOstar microplate reader (BMG Labtech) by measuring luminescent emission with the monochrometer set for the Nluc donor at 450–60 nm, and acceptor luminescent emission 540–60 nm (NBD), 600–80 nm (Cy3.5) or 690–100 nm (SulfoCy5), depending on which fluorophore was being tested. The acceptor/donor BRET ratio was then taken as a measure of fluorophore binding. For kinetic on then off NanoBRET experiments plates were washed the same way and substrate was added to the same concentration. However, 10 min after substrate was added plates were inserted into the CLARIOstar microplate reader set to 25 °C to take repeated measurements of luminescent emission for both the donor and the acceptor fluorophore being used. After 5 min of background measurements, the indicated concentration of fluorescent ligand was added using the plate reader injector and luminescent emission was monitored for ~10 min before the reader was paused to manually add a high concentration of appropriate competing ligand to initiate dissociation. The plate was returned to the reader and luminescence measurements were continued for a further 30 min to monitor dissociation of the fluorescent ligand. For kinetic experiments using multiple concentrations of fluorescent ligand, cells were placed in the plate reader immediately after the addition of Nano-Glo substrate and luminescent measurements were taken. After 5 min, the reader was paused to add the indicated concentrations of fluorescent ligand, before measurements were continued. To set non-specific binding for kinetic experiments, the indicated competing ligand was added 5 min before the addition of the fluorescent ligand.

FFA1 = FFA1 (Homo sapiens, UniProt O14842); experiment: Ca2+ mobilisation (Fura2) in Flp-In T-REx 293 cells expressing Nluc-FFA1, FFA1-Nluc or untagged FFA1; type: cell-based; set-up: expressed in transfected cells
Experimental: Nluc-FFA1, FFA1-Nluc or untagged FFA1 Flp-In T-REx 293 cells were plated at 50,000 cells per well in poly-D-lysine coated black clear bottom 96-well plates. Cells were then cultured for 24 h until reaching confluency before culture medium was replaced with medium containing 100 ng/mL of doxycycline to induce receptor expression. Cells were cultured for a further 24 h before the assay. On the day of the assay culture medium was removed and replaced with medium containing 3 μM Fura2-AM Ca^2+ dye. […] Fura2 fluorescent emission at 520 nm following excitation with each of 340 and 380 nm was measured in regular intervals both before and after adding test compounds for a total of 90 s per well. Calcium responses were determined by taking the peak 340/380 ratio after first subtracting the ratios obtained prior to addition of test compound.

FFA1-Nluc = FFA1-Nluc (Homo sapiens, UniProt O14842); experiment: NanoBRET binding (saturation, kinetics) at C terminal Nluc tagged FFA1; set-up: expressed in transfected cells; conditions: FFA1-Nluc, 95% confidence interval in parentheses; for Kd: read-out: Kd, saturation BRET binding; for BMax, saturation BRET binding: specific BRET
Experimental: as §1

Nluc-FFA1 [2] = target: T1, Nluc-FFA1; experiment: DISCo-BRET with TUG-2591 and TUG-2597 at N terminal Nluc tagged FFA1; type: binding; conditions: Figure 3F, 10 nM, technical duplicate
Experimental: Nluc-FFA1 or FFA1-Nluc Flp-In T-REx 293 cells were plated at 50,000 cells per well in poly-D-lysine coated white 96-well plates. Cells were cultured for 24 h in the plate before medium was replaced with medium containing 100 ng/mL of doxycycline to induce receptor expression. After culturing for a further 24 h, culture medium was removed, cells washed with HBSS and incubated in HBSS for 30 min. For all DISCo-BRET formats Nano-Glo substrate was then added at a 1:800 final dilution and cells incubated for 10 min. Following substrate addition experimental set up different among the three formats: endpoint, spectra scan, and kinetics.
For endpoint experiments all fluorescent and unlabelled ligands were added to the cells and incubated for 5 min at 37 °C. Luminescent emission was then measured using a CLARIOstar microplate reader with monochromator set at 450–60 nm (Nluc), 540−60 nm (NBD) and 690–100 nm (SulfoCy5). BRET ratios were then calculated as either SulfoCy5 emission divided by NBD emission, SulfoCy5 emission divided by Nluc emission, or NBD emission divided by Nluc emission.
For spectra scan experiments all indicated fluorescent and unlabelled ligands were added to the cells and cells incubated for 5 min at 37 °C. Luminescence emissions were then measured from each well of the plate from 440 nm – 740 nm with a 5 nm resolution using a CLARIOstar microplate. […]

[3] = 95% confidence interval in parentheses
[4] = log[Ligand] -5.5, single technical replicates
[5] = log[Ligand] -6, single technical replicates
[6] = log[Ligand] -6.5, single technical replicates
[7] = log[Ligand] -7, single technical replicates
[8] = log[Ligand] -8, single technical replicates

FFA1-Nluc, sequence (O14842 whole entry): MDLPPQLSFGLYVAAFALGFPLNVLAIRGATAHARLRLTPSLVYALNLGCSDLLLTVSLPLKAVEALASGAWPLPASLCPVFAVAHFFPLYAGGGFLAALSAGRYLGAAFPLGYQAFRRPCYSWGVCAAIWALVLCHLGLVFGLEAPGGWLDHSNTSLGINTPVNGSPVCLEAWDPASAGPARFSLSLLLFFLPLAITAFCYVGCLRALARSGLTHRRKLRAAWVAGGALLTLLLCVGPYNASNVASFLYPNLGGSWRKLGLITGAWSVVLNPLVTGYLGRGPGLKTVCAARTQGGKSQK
FFA1, sequence (O14842 whole entry): as above
T1 sequence (O14842 whole entry): as above

Compound	Kd (Nluc-FFA1 [1]; [3])	Ca2+ Response as a % of T360 Response (FFA1; [4])	Ca2+ Response as a % of T360 Response (FFA1; [5])	Ca2+ Response as a % of T360 Response (FFA1; [6])	Ca2+ Response as a % of T360 Response (FFA1; [7])	Ca2+ Response as a % of T360 Response (FFA1; [8])	Kd (FFA1-Nluc)	BMax, saturation BRET binding (FFA1-Nluc)	further results
Cc1cc(OCCOCCNC(=O)CCCCCN2\C(=C/C=C/C=C/C3=[N+](C)c4ccc(S(=O)(=O)[O-])cc4C3(C)C)C(C)(C)c3ccccc32)ccc1-c1cccc(COc2ccc(CCC(=O)O)c(F)c2)c1 [TUG-2355]	520 nM	47.56% and 39.50% and 44.99% and 26.68% and 35.66% and 31.10% and 60.09% and 62.76% and 60.18%	6.20% and 5.86% and 4.09% and -1.05% and -0.0134% and -0.48% and -1.46% and 7.50% and -1.37%	0.81% and -1.43% and -1.40% and -2.16% and -1.38% and 1.40% and -3.04% and 3.51% and -1.19%	1.12% and 1.72% and 2.65% and -2.38% and -2.12% and 0.39% and -2.69% and 2.22% and 0.50%	-2.32% and 0.08% and 1.34% and 0.25% and -0.22% and -1.88% and -1.89% and 3.89% and -2.52%	240 nM	0.022 (0.015−0.038)	Specific BRET (Nluc-FFA1 [1]; [TUG-2355] 1000 nM, technical triplicates): 0.0476 and 0.0570 and 0.0671 and 0.0472 and 0.0443 and 0.0544; BMax, saturation BRET binding (Nluc-FFA1 [1]; specific BRET, 95% confidence interval in parentheses): 0.083 (0.060−0.14); pEC50 (FFA1; Ca2+ data, mean±SEM, NR = No response): 5.43±0.06; Ca2+ Response as a % of T360 Response (FFA1; FFA1-Nluc cells, log[ligand] -7, technical replicates): -1.03% and 4.29% and 0.96%; Ca2+ Response as a % of T360 Response (FFA1; FFA1-Nluc cells, log[ligand] -7.5, technical replicates): 1.35% and 1.54% and 1.46% and 0.43% and 0.51% and 0.58%; Ca2+ Response as a % of T360 Response (FFA1; FFA1-Nluc, log[TUG-2355] -5, technical triplicates): 62.07 % of T360 Response and 53.90 % of T360 Response and 49.62 % of T360 Response and 44.94 % of T360 Response and 53.23 % of T360 Response and 56.24 % of T360 Response and 74.69 % of T360 Response and 72.06 % of T360 Response; Ca2+ Response as a % of T360 Response (FFA1; Nluc-FFA1, log[TUG-2355] -5, technical triplicates): 78.72 % of T360 Response and 80.47 % of T360 Response and 78.90 % of T360 Response and 53.23 % of T360 Response and 56.24 % of T360 Response and 77.92 % of T360 Response and 57.96 % of T360 Response and 82.25 % of T360 Response; Ca2+ Response as a % of T360 Response (FFA1; Nluc-FFA1 cells, log[ligand] -7, technical replicates): 1.27% and 0.43% and 0.51% and 0.58% and 0.96% and 2.49%; Ca2+ Response as a % of T360 Response (FFA1; Nluc-FFA1 cells, log[ligand] -7.5, technical replicates): 2.49% (2×) and 2.03%; Ca2+ Response as a % of T360 Response (FFA1; Nluc-FFA1 cells, log[ligand] -8, technical replicates): 0.05% and 1.00% and 0.97% and 1.13%; Ca2+ Response as a % of T360 Response (FFA1; log[Ligand] -4.5, single technical replicates): 81.14% and 82.71% and 91.68% and 50.63% and 60.58% and 55.59% and 78.02% and 80.44% and 71.73%; Ca2+ Response as a % of T360 Response (FFA1; log[Ligand] -5, single technical replicates): 78.72% and 80.47% and 78.90% and 53.23% and 56.24% and 77.92% and 57.96% and 82.25%; EMax (FFA1; percentage of response to 10 μM T360, NR = No response): 87±10%
Cc1cc(OCCOCCNC(=O)CCCCC[N+]2=C(/C=C/C=C3/N(C)c4ccc5ccccc5c4C3(C)C)C(C)(C)c3c2ccc2ccccc32)ccc1-c1cccc(COc2ccc(CCC(=O)O)c(F)c2)c1.O=C([O-])C(F)(F)F [TUG-2287]	200 nM	17.83% and 27.69% and 20.05% and -0.41% and 1.34% and 0.65%	5.00% and 8.24% and 2.11% and -0.20% and 0.45% and 0.71%	1.48% and 8.34% and 1.53% and -0.18% and -0.52% and -0.47%	0.96% and 2.49% and 1.27% and 0.43% and 0.51% and 0.58%	2.24% and 3.57% and 0.05% and 1.00% and 0.97% and 1.13%	25 nM	0.007 (0.005−0.01)	activity in Ca2+ assays (FFA1; in words): no measurable activity; Ca2+ Response as a % of T360 Response (FFA1; log[Ligand] -9, single technical replicates): 1.37% and 5.16% and 0.91% and -0.52% and -0.36% and 0.88%
Cc1cc(OCCCNC(=O)CCCN2\C(=C/C=C/C=C/C3=[N+](C)c4ccc(S(=O)(=O)[O-])cc4C3(C)C)C(C)(C)c3ccccc32)ccc1-c1cccc(COc2ccc(CCC(=O)O)c(F)c2)c1 [TUG-TUG-2591]									Area under the curve from luminecent emission, Total (Nluc-FFA1 [2]): 0.1968 and 0.1494 and 0.1776 and 0.1635 and 0.1742 and 0.2754
